Experimental data reported in patent US20100022483A1, “Substituted Tetracycline Compounds” (Paratek Pharmaceuticals, Inc., priority 2008, published 2010).
In brackets after ≈: the same amount, converted by molar mass. Read-outs that look alike come from different tables or passages of the source.

Experiments:
gram positive bacteria = assay: In vitro anti-bacterial activity assay (broth dilution MIC), gram positive bacteria; assay type: cell-based, S. aureus; details: 18 h
How it was run: (§1)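 Broth dilution MIC following CLSI M7-A2: compounds serially diluted, log-phase test strains added to final ~5×10^5 CFU/ml, incubated ~18 hours at 35° C in ambient air. Plates read on microplate reader or visually; MIC is lowest concentration inhibiting growth.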

gram negative bacteria = assay: In vitro anti-bacterial activity assay (broth dilution MIC), gram negative bacteria; assay type: cell-based, E. coli
How it was run: as §1

[1] = Mammalian cytotoxicity assay (resazurin), COS-1 cells; assay type: cell-based; details: African green monkey, read-out: Cytotox. COS-1
How it was run: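 Resazurin read-out (0.042 mg/ml, 2 h at 37° C. then 30 min dark, room temperature; fluorescence 535/590 nm) follows 24-hour compound exposure of overnight-seeded cells, serially diluted. IC50 is the concentration giving 50% growth inhibition.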

in vitro = assay type: cell-based; details: Chinese hamster, Cytotox. CHO-K1
3T3 fibroblast cells = assay: In vitro phototoxicity assay (neutral red; UV light-treated vs dark control plates); assay type: cell-based; details: for Photo Toxicity UV Tox50: UV light 50 minutes; for Photo Toxicity Dark Tox50: dark control plate
How it was run: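 Neutral red viability readout (A535 after EtOH/acetic acid extraction) compares paired plates: one exposed 50 min to UV at 1.6–1.8 mW/cm^2, one held in darkness, both dosed with compound in HBSS and recovered overnight. 3T3 fibroblast cells used; phototoxicity taken as the difference.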

[2] = Staphylococcus aureus, S. aureus MRSA5, read-out: Median MIC's G+ S. aureus MRSA5
[3] = Staphylococcus aureus, S. aureus RN450, read-out: Median MIC's G+ S. aureus RN450
[4] = Streptococcus pneumoniae, S. pneumoniae 157E-Strep, read-out: Median MIC's G+ S. pneumoniae 157E-Strep
[5] = Escherichia coli, 18 h, E. coli D1 209, read-out: Median MIC's G− E. coli D1 209
[6] = Escherichia coli, 18 h, E. coli MG 1655, read-out: Median MIC's G− E. coli MG 1655
[7] = Escherichia coli, ATCC25922, 18 h, E. coli ATCC 25922, read-out: Median MIC's G− E. coli ATCC 25922
[8] = Pseudomonas aeruginosa, 18 h, P. aeruginosa K201 PAO6609, read-out: Median MIC's G− P. aeruginosa K201 PAO6609

SMILES	MIC (gram positive bacteria; [2]) [µg/mL]	MIC (gram positive bacteria; [3]) [µg/mL]	MIC (gram positive bacteria; [4]) [µg/mL]	MIC (gram negative bacteria; [5]) [µg/mL]	MIC (gram negative bacteria; [6]) [µg/mL]	MIC (gram negative bacteria; [7]) [µg/mL]	MIC (gram negative bacteria; [8]) [µg/mL]	IC50 at 24 h [1] [µM]	IC50 at 24 h (in vitro) [µM]	Photo Toxicity UV Tox50 (3T3 fibroblast cells) [µM]	Photo Toxicity Dark Tox50 (3T3 fibroblast cells) [µM]
CN(C)[C@@H]1C(O)=C(C(N)=O)C(=O)[C@@]2(O)C(O)=C3C(=O)c4c(O)ccc(-c5cccc(C(=O)NCCN6CCCC6)c5)c4C[C@H]3C[C@@H]12 [CR]	16 (≈ 25.4 µM)	1 (≈ 1.59 µM)	0.25 (≈ 0.396 µM)	64 (≈ 101 µM)	16 (≈ 25.4 µM)	64 (≈ 101 µM)	64 (≈ 101 µM)	> 39.6	> 39.6	>127.91	>127.91
CN(C)CCNCc1cccc(-c2ccc(O)c3c2C[C@H]2C[C@H]4[C@H](N(C)C)C(O)=C(C(N)=O)C(=O)[C@@]4(O)C(O)=C2C3=O)c1 [CS]	8 (≈ 13.5 µM)	0.06 (≈ 0.102 µM)	0.06 (≈ 0.102 µM)	64 (≈ 108 µM)	2 (≈ 3.39 µM)	4 (≈ 6.77 µM)	64 (≈ 108 µM)	> 140	> 140	>139.98	>139.98
CN(C)CCN(C)Cc1cccc(-c2ccc(O)c3c2C[C@H]2C[C@H]4[C@H](N(C)C)C(O)=C(C(N)=O)C(=O)[C@@]4(O)C(O)=C2C3=O)c1 [CT]	4 (≈ 6.61 µM)	0.0625 (≈ 0.103 µM)	0.06 (≈ 0.0992 µM)	4 (≈ 6.61 µM)	2 (≈ 3.31 µM)	2 (≈ 3.31 µM)	64 (≈ 106 µM)	> 126	> 126	>126.03	>126.03
CN(C)CCCN(C)Cc1cccc(-c2ccc(O)c3c2C[C@H]2C[C@H]4[C@H](N(C)C)C(O)=C(C(N)=O)C(=O)[C@@]4(O)C(O)=C2C3=O)c1 [CU]	16 (≈ 25.9 µM)	0.5 (≈ 0.808 µM)	0.125 (≈ 0.202 µM)	32 (≈ 51.7 µM)	8 (≈ 12.9 µM)	8 (≈ 12.9 µM)	32 (≈ 51.7 µM)	> 124	> 124	>123.6	>123.6
CN(C)CCCCNCc1cccc(-c2ccc(O)c3c2C[C@H]2C[C@H]4[C@H](N(C)C)C(O)=C(C(N)=O)C(=O)[C@@]4(O)C(O)=C2C3=O)c1 [CV]	32 (≈ 51.7 µM)	2 (≈ 3.23 µM)	4 (≈ 6.46 µM)	64 (≈ 103 µM)	64 (≈ 103 µM)	64 (≈ 103 µM)	64 (≈ 103 µM)	> 135	> 135	>134.59	>134.59
CN(C)CCCCN(C)Cc1cccc(-c2ccc(O)c3c2C[C@H]2C[C@H]4[C@H](N(C)C)C(O)=C(C(N)=O)C(=O)[C@@]4(O)C(O)=C2C3=O)c1 [CW]	8 (≈ 12.6 µM)	0.06 (≈ 0.0948 µM)	0.06 (≈ 0.0948 µM)	4 (≈ 6.32 µM)	2 (≈ 3.16 µM)	2 (≈ 3.16 µM)	64 (≈ 101 µM)	> 132	> 132	>132.05	>132.05
CN(C)CCCNCc1cccc(-c2ccc(O)c3c2C[C@H]2C[C@H]4[C@H](N(C)C)C(O)=C(C(N)=O)C(=O)[C@@]4(O)C(O)=C2C3=O)c1 [CX]	8 (≈ 13.2 µM)	0.5 (≈ 0.827 µM)	0.25 (≈ 0.413 µM)	32 (≈ 52.9 µM)	16 (≈ 26.5 µM)	16 (≈ 26.5 µM)	64 (≈ 106 µM)	> 137	> 137	>137.23	>137.23
CN(C)CCNCc1ccc(-c2ccc(O)c3c2C[C@H]2C[C@H]4[C@H](N(C)C)C(O)=C(C(N)=O)C(=O)[C@@]4(O)C(O)=C2C3=O)o1 [CY]	64 (≈ 110 µM)	0.25 (≈ 0.431 µM)	0.06 (≈ 0.103 µM)	64 (≈ 110 µM)	2 (≈ 3.44 µM)	4 (≈ 6.89 µM)	64 (≈ 110 µM)	> 142	> 142	>142.02	>142.02
CN(C)CCN(C)Cc1ccc(-c2ccc(O)c3c2C[C@H]2C[C@H]4[C@H](N(C)C)C(O)=C(C(N)=O)C(=O)[C@@]4(O)C(O)=C2C3=O)o1 [CZ]	16 (≈ 26.9 µM)	0.06 (≈ 0.101 µM)	0.06 (≈ 0.101 µM)	16 (≈ 26.9 µM)	4 (≈ 6.73 µM)	4 (≈ 6.73 µM)	64 (≈ 108 µM)	> 13.8	> 13.8	>137.77	>137.77
CN1CCN(C(=O)c2cccc(-c3ccc(O)c4c3C[C@H]3C[C@H]5[C@H](N(C)C)C(O)=C(C(N)=O)C(=O)[C@@]5(O)C(O)=C3C4=O)c2)CC1 [C]	64 (≈ 104 µM)	0.25 (≈ 0.405 µM)	0.06 (≈ 0.0973 µM)	64 (≈ 104 µM)	32 (≈ 51.9 µM)	8 (≈ 13 µM)	64 (≈ 104 µM)	> 138	> 138	>137.76	>137.76
CN(C)[C@@H]1C(O)=C(C(N)=O)C(=O)[C@@]2(O)C(O)=C3C(=O)c4c(O)ccc(-c5cccc(C(=O)NCC[N+](C)(C)C)c5)c4C[C@H]3C[C@@H]12 [DA]	64	4	32	64	64	64	64	> 1.23	> 1.23	>123.61	>123.61
CN(C)[C@@H]1C(O)=C(C(N)=O)C(=O)[C@@]2(O)C(O)=C3C(=O)c4c(O)ccc(-c5cccc(C(=O)NCCN6CCOCC6)c5)c4CC3CC12 (stereo partly drawn) [DC]	4 (≈ 6.19 µM)	0.125 (≈ 0.193 µM)	0.125 (≈ 0.193 µM)	64 (≈ 99 µM)	8 (≈ 12.4 µM)	16 (≈ 24.7 µM)	64 (≈ 99 µM)	> 13.6	> 13.6	>136.18	>136.18
COCCCNC(=O)c1cccc(-c2ccc(O)c3c2CC2CC4[C@H](N(C)C)C(O)=C(C(N)=O)C(=O)[C@@]4(O)C(O)=C2C3=O)c1 (stereo partly drawn) [DD]	2 (≈ 3.3 µM)	0.0625 (≈ 0.103 µM)	0.06 (≈ 0.0991 µM)	64 (≈ 106 µM)	64 (≈ 106 µM)	64 (≈ 106 µM)	64 (≈ 106 µM)	> 15.3	> 15.3	>152.62	>152.62
COCCCOCCN(C)Cc1cccc(-c2ccc(O)c3c2C[C@H]2C[C@H]4[C@H](N(C)C)C(O)=C(C(N)=O)C(=O)[C@@]4(O)C(O)=C2C3=O)c1 [DE]	2 (≈ 3.08 µM)	0.06 (≈ 0.0923 µM)	0.06 (≈ 0.0923 µM)	2 (≈ 3.08 µM)	8 (≈ 12.3 µM)	2 (≈ 3.08 µM)	64 (≈ 98.5 µM)	> 20	> 20	>200	>200
COCCNC(=O)c1ccc(-c2ccc(O)c3c2C[C@H]2C[C@H]4[C@H](N(C)C)C(O)=C(C(N)=O)C(=O)[C@@]4(O)C(O)=C2C3=O)o1 [DF]	16 (≈ 27.5 µM)	0.0625 (≈ 0.107 µM)	0.06 (≈ 0.103 µM)	64 (≈ 110 µM)	32 (≈ 55 µM)	16 (≈ 27.5 µM)	64 (≈ 110 µM)	> 20	> 20	>200	>200
CN(C)[C@@H]1C(O)=C(C(N)=O)C(=O)[C@@]2(O)C(O)=C3C(=O)c4c(O)ccc(-c5cccc(CCCN)c5)c4C[C@H]3C[C@@H]12 [DG]	64 (≈ 117 µM)	0.5 (≈ 0.913 µM)	0.125 (≈ 0.228 µM)	32 (≈ 58.4 µM)	32 (≈ 58.4 µM)	32 (≈ 58.4 µM)	64 (≈ 117 µM)	> 20	> 20	64.8	>200
CN(C)CCCNC(=O)c1ccc(-c2ccc(O)c3c2C[C@H]2C[C@H]4[C@H](N(C)C)C(O)=C(C(N)=O)C(=O)[C@@]4(O)C(O)=C2C3=O)o1 [DH]	64 (≈ 105 µM)	4 (≈ 6.57 µM)	2 (≈ 3.29 µM)	64 (≈ 105 µM)	64 (≈ 105 µM)	64 (≈ 105 µM)	64 (≈ 105 µM)	> 200	> 200	>200	>200
CN(C)[C@@H]1C(O)=C(C(N)=O)C(=O)[C@@]2(O)C(O)=C3C(=O)c4c(O)ccc(-c5cccc(CCCN6CCCCC6)c5)c4C[C@H]3C[C@@H]12 [DI]	2 (≈ 3.25 µM)	0.0625 (≈ 0.102 µM)	0.06 (≈ 0.0974 µM)	2 (≈ 3.25 µM)	4 (≈ 6.5 µM)	1 (≈ 1.62 µM)	64 (≈ 104 µM)	59.4	54.1	45.65	>200
